Experimental data from publication PMC3750730 (Neuroscience letters, 2013).
pIC50: −log10 of the molar value.

Key:
brain glucose = details: rats treated with fluoxetine; cited from earlier work
rats = rats treated with fluoxetine; cited from earlier work
[1] = molecular target: class II HDAC enzyme subtypes; experiment: In vitro HDAC deacetylase activity assay; format: biochemical; details: read-out: IC50 class II HDAC enzyme subtypes; recombinant human HDACs
[2] = Rat weight during seven days of daily treatment; format: in vivo, rats; details: Cpd-60 22.5 mg/kg, CI-994 5 mg/kg, vs vehicle-treated controls

| SMILES | brain glucose changes (brain glucose) | behavioral effects in the forced swim test (rats) | pIC50 [1] | effect on rat weight over seven days [2] |
| --- | --- | --- | --- | --- |
| CNCCC(Oc1ccc(C(F)(F)F)cc1)c1ccccc1 (stereo not shown) [fluoxetine] | 4–14% | antidepressant behavioral effects |  |  |
| CC(=O)Nc1ccc(C(=O)Nc2ccccc2N)cc1 [CI-994] |  |  | < 4.48 | did not significantly affect rat weight |
